Assay results published in ChEMBL document CHEMBL1151529, “Conformationally constrained analogues of DAG.7. Interaction of a medium-size -lactone with protein kinase C (PK-C)_” (Bioorg Med Chem Lett, 1994).

Legend:
[1] = target: Protein kinase C alpha type (Rattus norvegicus, UniProt P05696); assay: Displacement of [3H]phorbol-12,13-dibutyrate from rat brain protein kinase C alpha
[2] = Displacement of [3H]phorbol-12,13-dibutyrate from mouse brain protein kinase C

SMILES	Ki [1]	Ki [2]
CCCCCCCCCCCCCC(=O)O[C@@H]1CCCC(=O)O[C@H]1CO	41 µM	–
CCCCCCCCCCCCCC(=O)O[C@H]1CCC(=O)O[C@@H]1CO	–	30.5 µM

Second part, the compound after the results:

Ki [1]	Ki [2]	SMILES
–	2.8 µM	CCCCCCCCCCCCCC(=O)O[C@@H]1CCC(=O)O[C@H]1CO
–	2.5 µM	CCCCCCCCCCCCCC(=O)O[C@@H]1CC(=O)O[C@H]1CO
–	5.3 µM	CCCCCCCCCCCCCC(=O)O[C@H]1CC(=O)O[C@@H]1CO
